The text below walks through data of ChEMBL document CHEMBL1201862, “PubChem BioAssay data set” (2004).

SMILES strings stand for the structures. The source made the active and inactive calls.

The term EC50 denotes the concentration at which the effect is half-maximal. For orientation: AC50 means the concentration giving half of the maximal activity seen. By CC50 is commonly meant the concentration giving 50% cytotoxicity.

In assay [1] the target is Potassium voltage-gated channel subfamily KQT member 2 (Rattus norvegicus, UniProt O88943). In words: potentiation of rat KCNQ2 current – cell-based, retigabine-insensitive compounds, dose response (AID 2654). It counts as functional.
Assay [2] can be described thus: NIH3T3 cell viability loss – ATP luminescence, mouse fibroblasts, counter-screen, dose response (AID 2010).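 Also: cells exposed to compound for about 90 hours before reading.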 It counts as functional, cell-based. (In general: Counterscreens check selectivity or assay interference.)
A short description of assay [3]: viability loss of HPDE-C7K cells – cell-based, fluorescence, HTS, primary screen (AID 431). It counts as functional. The conditions noted are these: Homo sapiens.
A short description of assay [4]: HPDE-C7 pancreatic duct cell viability loss – fluorescence, HTS (AID 430). It is filed as functional, cell-based. The conditions noted are these: Homo sapiens.
Assay [5] addresses Phosphomannomutase 2 (Homo sapiens, UniProt O15305). Put plainly: Counter screen SAR assay for PMM2 inhibitors via a fluorescence intensity assay. [Related pubchem assays (depositor defined):AID1545, AID1574].
The nature of assay [6]: Trypanosoma cruzi growth suppression in host cells – NIH3T3 host cells, beta-gal luminescence, confirmation (AID 2044).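 Also: intracellular parasites grown in NIH/3T3 mouse fibroblasts as host cells; luminescent beta-galactosidase reporter signal from transgenic T. cruzi replicating inside host cells; inhibitors lower the luminescence signal.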 It counts as functional, cell-based.
Assay [7] deals with T1, Mannose-6-phosphate isomerase (Homo sapiens, UniProt P34949).
T1 sequence (P34949 whole entry): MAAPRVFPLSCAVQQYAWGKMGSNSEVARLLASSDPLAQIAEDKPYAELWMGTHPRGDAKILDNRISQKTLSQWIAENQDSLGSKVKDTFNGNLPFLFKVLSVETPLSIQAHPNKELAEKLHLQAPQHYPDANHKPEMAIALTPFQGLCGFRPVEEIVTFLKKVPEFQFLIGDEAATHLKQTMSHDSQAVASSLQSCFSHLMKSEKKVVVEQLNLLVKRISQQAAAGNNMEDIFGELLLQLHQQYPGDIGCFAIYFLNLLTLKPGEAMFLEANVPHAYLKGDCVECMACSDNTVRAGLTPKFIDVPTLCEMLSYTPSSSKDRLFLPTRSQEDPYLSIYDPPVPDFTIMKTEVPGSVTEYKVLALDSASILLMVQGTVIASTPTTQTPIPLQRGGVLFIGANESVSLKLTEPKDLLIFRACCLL
In words: phosphomannose isomerase inhibition – biochemical, fluorescence intensity, confirmation (AID 1535).

Assay [8] addresses Glucose-6-phosphate 1-dehydrogenase (Homo sapiens, UniProt P11413). Put plainly: inhibition of Homo sapiens G6PD, dose series – biochemical, fluorescence, selectivity assay for P. falciparum G6PD inhibitor project, dose response (AID 504792). It is filed as functional.
The target in assay [9] is Phosphoethanolamine/phosphocholine phosphatase (Homo sapiens, UniProt Q8TCT1). In words: SAR assay for compounds that inhibit PHOSPHO1. [Related pubchem assays (depositor defined):AID1545, AID1565, AID1574].
The target in assay [10] is T2, Protein phosphatase methylesterase 1 (Homo sapiens, UniProt Q9Y570). In words: endogenous PME-1 and serine hydrolase inhibition – cell lysate, mouse brain cytosol, FP-rhodamine, gel ABPP, selectivity assay for PME-1 inhibitor project, dose response, panel member PME-1 Assay Panel member description: Inhibition of endogenously expressed PME-1 (AID 2366).
In assay [11] the target is T2, Protein phosphatase methylesterase 1. Put plainly: Late stage results from the probe development effort to identify inhibitors of the protein methylesterase PME-1: Gel-based Activity-Based Protein Profiling (ABPP) IC50: Purified enzyme. It counts as functional.
Assay [12] addresses T3, Small ubiquitin-related modifier 2 (Homo sapiens, UniProt P61956). In words: disruption of SUMO2 interaction with SIM peptide – biochemical, fluorescence polarization, uHTS hits, selectivity assay for SUMO1 interaction inhibitor project, dose response (AID 624385). Particulars: read-out: IC50_Mean. It is filed as functional. In general terms: Fluorescence polarisation rises when a labelled molecule tumbles more slowly, as on binding a larger partner.

The target in assay [13] is T4, Beta-galactosidase (Escherichia coli, UniProt Q8VNN2). In words: detection-enzyme interference by beta-gal modulators – biochemical, E. coli enzyme, set 3, artefact control for CCR6 antagonist project, dose response (AID 504712). It is filed as functional.
Assay [14] has as its target T5, Probable nicotinate-nucleotide adenylyltransferase (Staphylococcus aureus (strain N315), UniProt P65502). It is filed as functional, Staphylococcus aureus subsp. aureus N315.
Assay [15] has as its target T5, Probable nicotinate-nucleotide adenylyltransferase. It counts as functional, Staphylococcus aureus subsp. aureus N315. The conditions noted are these: read-out: IC50_Mean.
Assay [16] has as its target T3, Small ubiquitin-related modifier 2. Put plainly: SUMO2 binding disruption by SUMO1 hits – biochemical, FRET, human SUMO2, uHTS hits, selectivity assay for SUMO1 interaction inhibitor project, dose response (AID 624384). It counts as functional. The conditions noted are these: read-out: IC50_Mean.
Assay [17] addresses T6, Small ubiquitin-related modifier 1 (Homo sapiens, UniProt P63165). Put plainly: SUMO1 protein interaction blockers, potency – biochemical, fluorescence polarization, uHTS hits, dose response (AID 624382). It counts as functional. Particulars: read-out: IC50_Mean.
Assay [18] addresses T6, Small ubiquitin-related modifier 1. In words: SUMO1 protein-protein binding blockers, potency – biochemical, FRET, dose response (AID 624383). It counts as functional. Particulars: read-out: IC50_Mean.
The target in assay [19] is DNA (cytosine-5)-methyltransferase 1 (Homo sapiens, UniProt P26358). Put plainly: inhibition of DNA methylation by DNMT1 – biochemical, fluorescent molecular beacon, confirmation (AID 602386). It is filed as functional.
The target of assay [20] is T7, Coagulation factor XII (Homo sapiens, UniProt P00748).
T7 sequence (P00748 whole entry): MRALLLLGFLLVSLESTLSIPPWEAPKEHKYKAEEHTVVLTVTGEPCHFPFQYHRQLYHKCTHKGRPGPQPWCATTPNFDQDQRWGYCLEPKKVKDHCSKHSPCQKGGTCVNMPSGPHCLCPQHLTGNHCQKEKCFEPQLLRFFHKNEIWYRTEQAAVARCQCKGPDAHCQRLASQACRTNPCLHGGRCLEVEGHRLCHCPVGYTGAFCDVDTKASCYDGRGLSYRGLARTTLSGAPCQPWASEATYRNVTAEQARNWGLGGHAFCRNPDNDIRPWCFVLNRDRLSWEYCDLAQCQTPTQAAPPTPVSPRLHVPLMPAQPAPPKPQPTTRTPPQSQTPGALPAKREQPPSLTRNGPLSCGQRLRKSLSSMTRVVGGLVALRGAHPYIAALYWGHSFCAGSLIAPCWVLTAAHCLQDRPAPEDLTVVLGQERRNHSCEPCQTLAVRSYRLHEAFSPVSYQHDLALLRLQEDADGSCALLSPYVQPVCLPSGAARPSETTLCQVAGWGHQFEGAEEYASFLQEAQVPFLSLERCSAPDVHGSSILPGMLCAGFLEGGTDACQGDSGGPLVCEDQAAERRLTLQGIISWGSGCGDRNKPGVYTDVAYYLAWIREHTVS
In words: activated coagulation factor XII inhibitor potency, concentration-effect curve, cell-free (AID 716). It is filed as functional.

The target in assay [21] is Complement C1s subcomponent (Homo sapiens, UniProt P09871). Put plainly: Complement C1s ELISA. [Related pubchem assays: 538, 787 ]. It is filed as functional.
A short description of assay [22]: viability of HCT116 lacking mutant beta-catenin – cell-based, human colon tumor, dose response (AID 1045).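 Also: HCT116 colon tumor cells with beta catenin knocked out; cells exposed to compound for 60 hours.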 It counts as functional.
In assay [23] the target is T8, Kappa-type opioid receptor (Homo sapiens, UniProt P41145). It is filed as functional.
Assay [24] is described as follows: viability of PTEN-deleted HCT116 cells – cell-based, HCT116 PTEN knockout, dose response (AID 1047).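 Also: HCT116 colon tumor cells with PTEN knocked out; cells exposed to compound for 60 hours before readout; potency for loss of cell viability measured by luminescence.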 It counts as functional.
A short description of assay [25]: Fluorescence-based cell-based high throughput dose response assay for inhibitors of the interaction of nucleotide-binding oligomerization domain containing 2 (NOD2) and the receptor-interacting serine-threonine kinase 2 (RIPK2). It is filed as functional. The conditions noted are these: Homo sapiens.
Assay [26] deals with T8, Kappa-type opioid receptor. It counts as functional. The source holds these as a separate data set.
In assay [27] the target is T4, Beta-galactosidase. It is filed as functional.
The target of assay [28] is Hexokinase (Trypanosoma brucei, UniProt Q38C41). In words: Confirmation assay for inhibitors of Trypanosoma brucei hexokinase 1-Analogue-first series. [Related pubchem assays (depositor defined):AID1430, AID1632, AID2516, AID2560, AID2579, AID2600, AID449725, AID492951]. It is filed as functional.
Assay [29] concerns the target Glutathione S-transferase omega-1 (Homo sapiens, UniProt P78417). Put plainly: IC50 of human GSTO1 blockade by gel ABPP – biochemical, SE-Rh probe, in-gel fluorescence, powder samples, set 2, late-stage follow-up (AID 463142). It counts as functional.
Assay [30] deals with ORF 73 (Human herpesvirus 8, UniProt O40947). Put plainly: KSHV LANA DNA-binding disruption – biochemical, fluorescence polarization, cherry-picked samples, dose response (AID 504725).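 Also: fluorescence polarization of a labeled DNA duplex reporting LANA DNA binding; potency is for inhibitors that block LANA binding to the DNA.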 Also noted: species or system Human gammaherpesvirus 8.
Assay [31] has as its target Sphingosine 1-phosphate receptor 4 (Homo sapiens, UniProt O95977). In words: potency of S1P4 activators – cell-based, fluorescence, synthesized compounds, late-stage follow-up (AID 463107). It is filed as functional.
Assay [32] concerns the target Voltage-dependent T-type calcium channel subunit alpha-1H (Homo sapiens, UniProt O95180). In words: human CACNA1H calcium influx blockade – cell-based, synthetic library set 1, calcium flux (AID 493022). It counts as functional.
Assay [33] has as its target DNA dC->dU-editing enzyme APOBEC-3G (Homo sapiens, UniProt Q9HC16). In words: Dose Response confirmation of small molecule APOBEC3G DNA Deaminase Inhibitors via a fluorescence-based single-stranded DNA deaminase assay. [Related pubchem assays (depositor defined):AID493012, AID493028]. It is filed as functional.
The target in assay [34] is DNA dC->dU-editing enzyme APOBEC-3A (Homo sapiens, UniProt P31941). In words: A3A deaminase inhibition for selectivity – biochemical, dose response (AID 504722). It counts as functional.
Assay [35] can be described thus: THP-1 cell cytotoxicity, dose response, cytotoxicity control for non-replicating M. tuberculosis project (AID 489025). It counts as functional.
Assay [36] can be described thus: HepG2 cell cytotoxicity, dose response, cytotoxicity control for non-replicating M. tuberculosis project (AID 489018). It is filed as functional. Particulars: Mycobacterium tuberculosis.
Assay [37] concerns INS1. In words: INS-1E survival protection against cytokine death – cell-based, luminescence, retest, dose response (AID 449756).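 Also: cell death triggered by IL-1 beta plus TNF-alpha plus IFN-gamma mixture; protective hits raise ATP signal compared with cytokine alone wells.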 It counts as functional. Particulars: Rattus norvegicus.
Assay [38] in a line: Vero E6 cell cytotoxicity, dose response, cytotoxicity control for non-replicating M. tuberculosis project, secondary assay (AID 492998). It counts as functional, VeroE6. Particulars: Vero C1008.
Assay [39] can be described thus: cells. It is filed as functional.

T6 sequence (P63165 whole entry): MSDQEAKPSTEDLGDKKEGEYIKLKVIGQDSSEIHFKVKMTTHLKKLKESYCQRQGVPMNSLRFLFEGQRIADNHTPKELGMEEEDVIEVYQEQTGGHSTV
T8 sequence (P41145 whole entry): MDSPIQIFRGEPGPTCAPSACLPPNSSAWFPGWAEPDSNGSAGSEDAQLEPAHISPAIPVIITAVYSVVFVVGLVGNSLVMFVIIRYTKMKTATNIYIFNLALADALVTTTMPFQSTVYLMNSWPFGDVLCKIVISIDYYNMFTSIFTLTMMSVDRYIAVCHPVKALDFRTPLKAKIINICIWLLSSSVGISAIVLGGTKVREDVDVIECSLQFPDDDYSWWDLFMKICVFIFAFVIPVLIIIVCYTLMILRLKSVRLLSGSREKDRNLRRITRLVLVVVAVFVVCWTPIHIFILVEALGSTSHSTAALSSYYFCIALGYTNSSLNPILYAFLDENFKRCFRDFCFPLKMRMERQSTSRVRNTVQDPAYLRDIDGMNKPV
T4 sequence (Q8VNN2 whole entry): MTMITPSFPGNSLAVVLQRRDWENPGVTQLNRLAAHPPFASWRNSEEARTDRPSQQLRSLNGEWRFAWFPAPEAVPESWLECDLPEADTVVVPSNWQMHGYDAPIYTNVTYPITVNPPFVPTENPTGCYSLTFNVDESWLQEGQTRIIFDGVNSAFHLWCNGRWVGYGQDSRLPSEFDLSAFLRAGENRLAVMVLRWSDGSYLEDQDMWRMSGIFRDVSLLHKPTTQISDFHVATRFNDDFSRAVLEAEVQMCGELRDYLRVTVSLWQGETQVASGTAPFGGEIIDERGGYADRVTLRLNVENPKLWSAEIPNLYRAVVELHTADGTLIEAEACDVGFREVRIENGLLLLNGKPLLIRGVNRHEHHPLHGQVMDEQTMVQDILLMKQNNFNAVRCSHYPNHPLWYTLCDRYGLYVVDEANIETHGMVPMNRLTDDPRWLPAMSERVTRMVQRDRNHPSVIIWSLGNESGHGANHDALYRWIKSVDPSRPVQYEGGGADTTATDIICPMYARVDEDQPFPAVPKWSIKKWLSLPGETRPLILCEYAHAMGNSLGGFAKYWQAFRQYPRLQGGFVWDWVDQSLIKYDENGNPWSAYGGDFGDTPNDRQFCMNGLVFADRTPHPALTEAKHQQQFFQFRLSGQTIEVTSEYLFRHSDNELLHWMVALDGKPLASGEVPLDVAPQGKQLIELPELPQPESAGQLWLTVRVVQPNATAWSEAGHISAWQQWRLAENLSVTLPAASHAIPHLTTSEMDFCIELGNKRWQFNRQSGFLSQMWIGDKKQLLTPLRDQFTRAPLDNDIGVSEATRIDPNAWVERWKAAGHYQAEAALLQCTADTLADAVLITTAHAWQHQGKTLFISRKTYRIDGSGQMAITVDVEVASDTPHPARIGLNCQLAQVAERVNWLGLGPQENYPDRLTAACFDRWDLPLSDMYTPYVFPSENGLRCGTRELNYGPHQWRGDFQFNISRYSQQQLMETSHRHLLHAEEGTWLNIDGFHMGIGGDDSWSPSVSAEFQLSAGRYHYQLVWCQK
T2 sequence (Q9Y570 whole entry): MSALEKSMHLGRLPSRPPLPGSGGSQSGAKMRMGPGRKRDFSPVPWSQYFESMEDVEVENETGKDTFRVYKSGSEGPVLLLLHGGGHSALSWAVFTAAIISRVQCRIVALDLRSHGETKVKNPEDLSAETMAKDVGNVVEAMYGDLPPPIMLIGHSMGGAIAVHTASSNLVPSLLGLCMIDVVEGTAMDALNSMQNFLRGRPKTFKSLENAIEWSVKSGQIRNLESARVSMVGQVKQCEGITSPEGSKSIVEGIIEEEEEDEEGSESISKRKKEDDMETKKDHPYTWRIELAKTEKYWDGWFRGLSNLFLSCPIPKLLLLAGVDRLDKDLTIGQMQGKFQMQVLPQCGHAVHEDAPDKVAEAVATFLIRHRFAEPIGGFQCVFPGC
T3 sequence (P61956 whole entry): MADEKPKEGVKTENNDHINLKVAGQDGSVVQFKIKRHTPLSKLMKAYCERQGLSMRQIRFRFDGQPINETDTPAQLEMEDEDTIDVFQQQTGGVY
T5 sequence (P65502 whole entry): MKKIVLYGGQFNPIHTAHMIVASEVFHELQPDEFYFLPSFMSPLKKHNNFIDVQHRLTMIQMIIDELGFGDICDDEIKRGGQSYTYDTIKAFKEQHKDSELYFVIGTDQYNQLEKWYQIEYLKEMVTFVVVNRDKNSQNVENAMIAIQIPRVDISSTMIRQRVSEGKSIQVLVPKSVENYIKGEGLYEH
Chain of Hexokinase (Q38C41 whole entry): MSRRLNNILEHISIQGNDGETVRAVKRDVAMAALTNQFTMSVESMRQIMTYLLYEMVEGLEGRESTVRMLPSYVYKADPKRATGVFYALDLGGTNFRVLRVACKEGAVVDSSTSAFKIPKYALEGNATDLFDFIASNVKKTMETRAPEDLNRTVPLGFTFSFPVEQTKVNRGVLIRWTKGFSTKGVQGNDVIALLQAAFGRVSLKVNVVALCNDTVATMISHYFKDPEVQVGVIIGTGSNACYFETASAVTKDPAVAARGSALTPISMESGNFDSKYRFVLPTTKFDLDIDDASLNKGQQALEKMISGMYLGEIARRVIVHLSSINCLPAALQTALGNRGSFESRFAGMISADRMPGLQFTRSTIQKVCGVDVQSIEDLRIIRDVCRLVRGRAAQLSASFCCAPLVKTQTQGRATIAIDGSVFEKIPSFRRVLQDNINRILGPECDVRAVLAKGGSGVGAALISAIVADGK
Chain of DNA dC->dU-editing enzyme APOBEC-3A (P31941 whole entry): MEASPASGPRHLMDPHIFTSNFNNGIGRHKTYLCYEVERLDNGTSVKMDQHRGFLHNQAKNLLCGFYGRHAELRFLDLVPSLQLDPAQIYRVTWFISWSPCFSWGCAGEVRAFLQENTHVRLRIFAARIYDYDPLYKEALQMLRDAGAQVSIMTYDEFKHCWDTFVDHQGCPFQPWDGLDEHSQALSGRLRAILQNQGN
Chain of Potassium voltage-gated channel subfamily KQT member 2 (O88943 whole entry): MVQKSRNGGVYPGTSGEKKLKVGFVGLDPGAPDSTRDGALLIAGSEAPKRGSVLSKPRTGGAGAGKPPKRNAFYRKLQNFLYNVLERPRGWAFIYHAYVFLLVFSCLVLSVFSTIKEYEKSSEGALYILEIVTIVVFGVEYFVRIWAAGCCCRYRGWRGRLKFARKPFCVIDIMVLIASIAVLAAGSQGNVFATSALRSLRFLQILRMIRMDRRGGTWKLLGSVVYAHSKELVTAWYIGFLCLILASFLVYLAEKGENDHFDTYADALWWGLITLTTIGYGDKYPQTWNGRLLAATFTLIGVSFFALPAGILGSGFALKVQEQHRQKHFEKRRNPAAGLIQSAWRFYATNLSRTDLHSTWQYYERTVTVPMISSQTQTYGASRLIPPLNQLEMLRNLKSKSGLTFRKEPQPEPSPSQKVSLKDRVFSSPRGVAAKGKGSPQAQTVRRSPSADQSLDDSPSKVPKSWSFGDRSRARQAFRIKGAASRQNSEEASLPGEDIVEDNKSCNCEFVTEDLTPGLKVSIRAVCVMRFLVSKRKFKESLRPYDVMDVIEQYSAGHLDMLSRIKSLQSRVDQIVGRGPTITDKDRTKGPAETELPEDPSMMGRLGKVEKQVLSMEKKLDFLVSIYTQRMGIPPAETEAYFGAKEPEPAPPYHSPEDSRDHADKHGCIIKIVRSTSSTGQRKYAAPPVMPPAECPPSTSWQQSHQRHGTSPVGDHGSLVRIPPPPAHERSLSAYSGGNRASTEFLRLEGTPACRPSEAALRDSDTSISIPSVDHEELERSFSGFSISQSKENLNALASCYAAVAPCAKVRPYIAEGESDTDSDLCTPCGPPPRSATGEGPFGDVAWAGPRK
Chain of DNA dC->dU-editing enzyme APOBEC-3G (Q9HC16 whole entry): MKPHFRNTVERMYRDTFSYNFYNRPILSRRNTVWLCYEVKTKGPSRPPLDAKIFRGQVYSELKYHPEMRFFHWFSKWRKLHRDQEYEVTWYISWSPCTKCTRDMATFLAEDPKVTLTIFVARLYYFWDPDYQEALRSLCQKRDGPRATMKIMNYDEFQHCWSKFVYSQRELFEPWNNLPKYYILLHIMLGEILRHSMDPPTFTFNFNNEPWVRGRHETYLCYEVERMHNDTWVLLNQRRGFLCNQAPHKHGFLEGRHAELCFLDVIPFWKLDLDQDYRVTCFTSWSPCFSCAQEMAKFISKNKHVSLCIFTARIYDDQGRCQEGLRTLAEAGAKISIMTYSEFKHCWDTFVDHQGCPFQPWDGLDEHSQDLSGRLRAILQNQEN
Chain of Phosphoethanolamine/phosphocholine phosphatase (Q8TCT1 whole entry): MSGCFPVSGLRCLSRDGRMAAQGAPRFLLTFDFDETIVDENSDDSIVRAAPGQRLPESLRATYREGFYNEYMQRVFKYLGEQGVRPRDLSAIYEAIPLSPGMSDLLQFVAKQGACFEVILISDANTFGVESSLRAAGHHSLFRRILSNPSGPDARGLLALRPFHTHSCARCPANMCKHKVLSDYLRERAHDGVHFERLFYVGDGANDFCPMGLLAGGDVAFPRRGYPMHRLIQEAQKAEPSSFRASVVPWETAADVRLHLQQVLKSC
Chain of Phosphomannomutase 2 (O15305 whole entry): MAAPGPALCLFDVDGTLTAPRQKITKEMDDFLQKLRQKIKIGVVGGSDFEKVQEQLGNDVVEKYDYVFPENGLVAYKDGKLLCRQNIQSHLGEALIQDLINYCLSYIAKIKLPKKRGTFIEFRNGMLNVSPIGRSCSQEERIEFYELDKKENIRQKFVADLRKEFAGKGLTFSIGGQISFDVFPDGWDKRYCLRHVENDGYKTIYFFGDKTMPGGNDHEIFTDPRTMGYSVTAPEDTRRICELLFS
Chain of Glutathione S-transferase omega-1 (P78417 whole entry): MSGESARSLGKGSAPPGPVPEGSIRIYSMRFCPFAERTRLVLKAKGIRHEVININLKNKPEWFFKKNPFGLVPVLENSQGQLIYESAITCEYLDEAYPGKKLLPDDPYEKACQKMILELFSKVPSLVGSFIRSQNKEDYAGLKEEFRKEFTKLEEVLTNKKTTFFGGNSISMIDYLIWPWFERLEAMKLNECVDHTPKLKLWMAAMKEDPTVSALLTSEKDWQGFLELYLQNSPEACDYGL

With `CCOc1ccc(NC(=O)Nc2cccnc2)cc1`, in assay [1], the concentration for a half-maximal effect (EC50) is 14.3 µM (active).

As for `O=c1c2ccccc2sn1-c1ccc(S(=O)(=O)N2CCCC2)cc1`, the EC50 was > 30 µM (not active) in assay [2], > 20 µM (not active) in assay [3], > 20 µM (not active) in [4] and 1.29 µM (active) in assay [6]. Further, the IC50 in assay [5] was > 100 µM (inactive); in assay [7], > 50 µM (inactive); in assay [8] it was 30.7 µM (inactive); in [9], 489 nM (active).

For `CS(=O)(=O)/C(C#N)=C/c1ccccc1`, the results for the IC50 in [10] and in assay [11] were > 20 µM (inactive) and > 20 µM (not active), respectively.

Regarding `CCOc1ccc(C=NNc2ccc(S(=O)(=O)Nc3ccccc3C(=O)O)cc2[N+](=O)[O-])cc1`, the IC50 is 3.67 µM (active) in [12]; > 66.6 µM (inactive) in [13]; 7.56 µM (active) in assay [14]; 15.6 µM (active) in assay [15]; > 66 µM (inactive) in assay [16]; 4.41 µM (active) in [17]. Further, the IC50 is 51.3 µM (inactive) in assay [18] and 5.78 µM (active) in assay [19].

Consider `O=C(c1csc2c1CCCC2)n1cccn1`, for which the IC50 in assay [20] is 5.39 µM (active); in [21] it was > 50 µM (not active).

With `N#CC(C#N)=C1C=CC=CN1/C(=C\c1ccco1)C(=O)c1ccc(-c2ccccc2)cc1`, the concentration for a half-maximal effect (EC50) in [22] was 4.81 µM (active); in assay [24], 4.69 µM (active); in [27] it was > 31.5 µM (inactive). The IC50 in assay [23] was 16.1 µM (active); in [25] it was 945 nM (active); in assay [26], over 32 µM.

Regarding `COC(=O)c1cc(Cl)ccc1NC(=O)c1ccc(OC)cc1`, the IC50 in assay [28] is > 25 µM (inactive).

Consider `C#CCN(CCCN(C(=O)CCl)c1ccc([N+](=O)[O-])cc1)C(=O)C(F)(F)F`, for which the IC50 in assay [29] is 23 nM (active).

As to `O=C(COc1ccccc1Cc1ccccc1)NCCCN1CCOCC1`, the AC50 in assay [30] is 183 µM (active).

As for `COC(=O)c1ncccc1OCCOc1ccc(Cl)cc1Cl`, the EC50 in assay [31] is > 50 µM (inactive).

In the case of `O=C(COc1ccc(Cl)cc1)Nc1nnc(-c2ccc(F)cc2)o1`, in assay [32], the EC50 was 1.8 µM (active).

For `CC(/C=N/n1c(S)nnc1-c1ccco1)=C\c1ccco1`, the IC50 in assay [33] is 2.62 µM (active); in [34], > 100 µM (inactive).

With `Cc1cc(NC2CCCCC2)nc(NCc2ccccc2)n1`, the 50% effective concentration (EC50) was 8.62 µM (active) in assay [2] and 1.61 µM (active) in assay [6]. The CC50 is 12.9 µM (active) in assay [35], 16.1 µM (active) in assay [36] and > 20 µM (active) in assay [38]. The AC50 in [37] was 2.83 µM (active). Moreover, the IC50 in assay [39] was 10.7 µM (active).
